The record followed here is paper PMC3914206.

Test [1] addresses T1, panel of 442 kinases (Homo sapiens, UniProt P49137).
T1 construct: purchased KINOMEscan
It counts as binding. Conditions: Compound Concentration 10 µM. An excerpt:
(§1) We assessed the selectivity of members of this scaffold using the KINOMEscan methodology across a near comprehensive panel of 442 kinases [[18,27]].

The target of test [2] is T2, panel of 442 kinases (Homo sapiens, UniProt P36888, R834Q).
T2 construct: purchased KINOMEscan
T2 sequence (P36888 27-993 R834Q): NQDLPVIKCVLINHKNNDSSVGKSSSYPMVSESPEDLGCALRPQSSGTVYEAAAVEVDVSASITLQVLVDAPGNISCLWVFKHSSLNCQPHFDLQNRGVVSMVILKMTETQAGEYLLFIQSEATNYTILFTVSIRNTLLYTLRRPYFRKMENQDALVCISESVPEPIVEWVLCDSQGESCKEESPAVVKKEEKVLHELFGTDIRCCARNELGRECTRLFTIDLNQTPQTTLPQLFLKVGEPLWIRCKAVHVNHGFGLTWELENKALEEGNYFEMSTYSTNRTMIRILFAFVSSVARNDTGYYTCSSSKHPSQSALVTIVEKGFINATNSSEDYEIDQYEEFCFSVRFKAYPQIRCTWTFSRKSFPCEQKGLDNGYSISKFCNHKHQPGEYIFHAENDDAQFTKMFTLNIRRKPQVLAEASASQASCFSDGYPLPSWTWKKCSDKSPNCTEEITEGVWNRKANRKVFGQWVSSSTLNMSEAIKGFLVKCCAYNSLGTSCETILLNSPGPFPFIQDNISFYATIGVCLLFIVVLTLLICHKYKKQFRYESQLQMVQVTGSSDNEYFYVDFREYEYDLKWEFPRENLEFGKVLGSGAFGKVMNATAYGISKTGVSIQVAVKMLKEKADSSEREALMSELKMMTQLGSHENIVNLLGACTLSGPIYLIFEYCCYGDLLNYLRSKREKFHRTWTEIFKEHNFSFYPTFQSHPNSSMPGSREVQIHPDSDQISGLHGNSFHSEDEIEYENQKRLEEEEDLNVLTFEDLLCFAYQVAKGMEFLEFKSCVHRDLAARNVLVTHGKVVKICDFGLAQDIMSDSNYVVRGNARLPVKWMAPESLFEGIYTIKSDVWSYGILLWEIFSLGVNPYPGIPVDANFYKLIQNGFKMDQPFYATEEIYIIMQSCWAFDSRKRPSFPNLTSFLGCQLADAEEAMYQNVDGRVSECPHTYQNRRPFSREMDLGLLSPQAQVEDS
The class given is binding. Conditions: Compound Concentration 10 µM.
Source text: as §1

T1 sequence (P49137 whole entry): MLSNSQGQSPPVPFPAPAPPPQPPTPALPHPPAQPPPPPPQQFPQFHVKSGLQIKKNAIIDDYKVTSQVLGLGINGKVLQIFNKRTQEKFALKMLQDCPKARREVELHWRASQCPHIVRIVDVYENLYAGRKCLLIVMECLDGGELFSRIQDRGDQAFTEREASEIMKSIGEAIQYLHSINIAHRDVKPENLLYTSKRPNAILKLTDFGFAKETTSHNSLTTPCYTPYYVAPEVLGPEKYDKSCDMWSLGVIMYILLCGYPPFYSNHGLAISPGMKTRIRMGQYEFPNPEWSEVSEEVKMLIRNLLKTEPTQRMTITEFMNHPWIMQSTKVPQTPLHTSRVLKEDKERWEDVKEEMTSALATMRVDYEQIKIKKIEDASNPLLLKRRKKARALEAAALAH

Regarding `COc1cc(C(=O)N2CCC(N3CCN(C)CC3)CC2)ccc1Nc1ncc2c(n1)N(C)c1ccccc1C(=O)N2C` [15 (LRRK2-IN-1)], in test [1], the “KINOMEscan: MAPKAPK2” value was 100. Besides, the “KINOMEscan: FLT3(R834Q)” value in test [2] was found to be 100. As for `COc1cc(C(=O)N2CCC(N3CCN(C)CC3)CC2)ccc1Nc1ncc2c(n1)N1CCc3cccc(c31)C(=O)N2C` [Compound 24], in test [2], the “KINOMEscan: FLT3(R834Q)” value is given as 100. Consider `COc1cc(C(=O)N2CCC(N3CCN(C)CC3)CC2)ccc1Nc1ncc2c(n1)N(C1CCCC1)c1ccccc1C(=O)N2C` [Compound 25, 11-cyclopentyl-2-((2-methoxy-4-(4-(4-methylpiperazin-1-yl)piperidine-1-carbonyl)phenyl)amino)-5-methyl-5H-benzo[e]pyrimido[5,4-b][1,4]diazepin-6(11H)-one], for which, in test [1], the “KINOMEscan: MAPKAPK2” value came out at 100. Moreover, the “KINOMEscan: FLT3(R834Q)” value in test [2] amounted to 100. Take `CCOc1cc(C(=O)N2CCC(N3CCN(C)CC3)CC2)ccc1Nc1ncc2c(n1)N(C1CCCC1)c1ccccc1C(=O)N2C` [Compound 26]: the “KINOMEscan: MAPKAPK2” value in test [1] amounted to 100. Further, the “KINOMEscan: FLT3(R834Q)” value in test [2] worked out at 100.
